Test [1] concerns the target T1, HLA-DP4 molecule DPA1*0103/DPB1*0401 (DP401) (Homo sapiens, UniProt P04440+P20036).
T1 construct: purified from various human B lymphocyte lines transformed with the Epstein Barr virus (EBV), which are homozygotes for DP; endogenous in cells
T1 sequence (P20036 29-260): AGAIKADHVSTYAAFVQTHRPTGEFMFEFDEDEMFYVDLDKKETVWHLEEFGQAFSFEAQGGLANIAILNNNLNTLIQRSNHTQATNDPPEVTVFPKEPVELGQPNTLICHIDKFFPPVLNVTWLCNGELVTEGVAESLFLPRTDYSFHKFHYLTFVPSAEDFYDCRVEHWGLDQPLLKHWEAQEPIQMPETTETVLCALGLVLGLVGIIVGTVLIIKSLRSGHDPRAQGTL
T1 sequence (P04440 30-258): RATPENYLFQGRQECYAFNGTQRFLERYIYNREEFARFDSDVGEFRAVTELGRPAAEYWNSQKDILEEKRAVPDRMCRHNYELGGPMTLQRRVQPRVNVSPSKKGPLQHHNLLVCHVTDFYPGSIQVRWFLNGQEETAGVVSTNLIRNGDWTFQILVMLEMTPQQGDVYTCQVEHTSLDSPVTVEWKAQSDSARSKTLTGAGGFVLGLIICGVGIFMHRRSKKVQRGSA
The experiment in a line: biochemical. The format is binding. To be noted: for binding to the HLA-DP*0401 molecule: FIG. 1, in words, tracer bUNK1 10 nM.

Test [2] has as its target T2, HLA-DP4 molecule DPA1*0103/DPB1*0402 (DP402) (Homo sapiens, UniProt P04440+P20036, A65V/A84D/A85E/L207M).
T2 construct: purified from various human B lymphocyte lines transformed with the Epstein Barr virus (EBV), which are homozygotes for DP; endogenous in cells
T2 sequence (P20036 29-260): T1 sequence (P20036 29-260)
T2 sequence (P04440 30-258 A65V/A84D/A85E): T1 sequence (P04440 30-258) with A36V, A55D, A56E
The experiment in a line: biochemical. In kind it is binding. The following applies: for binding to the HLA-DP*0402 molecule: FIG. 1, in words, tracer bUNK1 10 nM.

Setting [3] is: IC50 (nM) 401, Table XIII, binding to DPB1*0401, competition binding assay.
The mark [4] stands for this setting: IC50 (nM) DP0401, Api m1 overlapping peptides, tracer bUNK 1-17 10 nM, pH 5, 24 h.
Where [5] appears, read: IC50 (nM) 402, Table XIII, binding to DPB1*0402, competition binding assay.
Where [6] appears, read: IC50 (nM) DP0402, Api m1 overlapping peptides, tracer bUNK 1-17 10 nM, pH 5, 24 h.
Setting [7] is: DP*0401 IC50 (nM), Table XV, HLA-DP4-binding activity.
The mark [8] stands for this setting: DP*0402 IC50 (nM), Table XV, HLA-DP4-binding activity.

Here are results for twelve compounds from patent publication US20100324829A1, “METHOD OF SELECTING HLA-DP4 LIGANDS AND THE APPLICATIONS THEREOF” (priority 2001, published 2010).

Positions count from the first letter of the chain named. Read-outs that look alike come from different tables or passages of the source. Where a SMILES comes first, the peptide text is derived from it. Some results are limits rather than exact numbers.

For orientation: IC50 means the midpoint of a concentration-inhibition curve.

For the compound `CC[C@H](C)[C@H](NC(=O)[C@H](CC(C)C)NC(=O)[C@H](CC(N)=O)NC(=O)[C@H](Cc1ccccc1)NC(=O)[C@H](Cc1ccc(O)cc1)NC(=O)[C@H](CCSC)NC(=O)[C@H](CCCCN)NC(=O)CNC(=O)[C@@H](NC(=O)[C@H](Cc1ccccc1)NC(=O)[C@H](Cc1ccc(O)cc1)NC(=O)[C@H](CO)NC(=O)[C@H](CO)NC(=O)[C@@H](NC(=O)[C@@H](N)[C@@H](C)O)[C@@H](C)CC)C(C)C)C(=O)N[C@@H](CC(=O)O)C(=O)N[C@H](C(=O)N[C@@H](CCCCN)C(=O)O)[C@@H](C)O` [77-94] (H-TISSYFVGKMYFNLIDTK-OH; N-terminus and C-terminus assumed), the IC50 in test [1] (setting [3]) was determined as 450 nM; in test [1] (setting [4]), 450 nM; in test [2] (setting [5]), 175 nM; in test [2] (setting [6]), 175 nM.

As for “EPRAPWIEQEGPEYWDQE [HCI 46-63, reference compound]”, in test [1], the “binding to the HLA-DP*0401 molecule” value is reported as “do not bind”. Besides, in test [2], the “binding to the HLA-DP*0402 molecule” value is “do not bind”.

Regarding FNNFTVSFWLRVPKVSA [TT 947-963], in test [1], the “binding to the HLA-DP*0401 molecule” value is “effectively bind”. The “binding to the HLA-DP*0402 molecule” value in test [2] was “effectively bind”.

For `CC[C@H](C)[C@H](NC(=O)[C@@H](NC(=O)[C@H](CC(=O)O)NC(=O)[C@H](C)NC(=O)[C@H](CO)NC(=O)[C@H](CC(N)=O)NC(=O)[C@H](CCCCN)NC(=O)[C@H](CC(C)C)NC(=O)[C@H](CS)NC(=O)[C@@H](N)CC(=O)O)[C@@H](C)O)C(=O)N[C@@H](CO)C(=O)N[C@@H](CO)C(=O)N[C@@H](Cc1ccc(O)cc1)C(=O)N[C@@H](Cc1ccccc1)C(=O)N[C@H](C(=O)NCC(=O)N[C@@H](CCCCN)C(=O)N[C@@H](CCSC)C(=O)O)C(C)C` [69-86], the IC50 in test [1] (setting [3]), in test [1] (setting [4]), in test [2] (setting [5]) and in test [2] (setting [6]) was over 10000 nM throughout.

For the compound `CC(C)C[C@H](NC(=O)[C@H](Cc1ccc(O)cc1)NC(=O)[C@H](CC(N)=O)NC(=O)[C@H](CCC(=O)O)NC(=O)[C@H](CCC(N)=O)NC(=O)[C@@H](NC(=O)[C@H](Cc1ccccc1)NC(=O)[C@H](Cc1c[nH]cn1)NC(=O)[C@H](CCC(N)=O)NC(=O)[C@@H](NC(=O)[C@H](CC(C)C)NC(=O)[C@@H](N)CC(C)C)[C@@H](C)O)C(C)C)C(=O)N[C@@H](CCC(=O)O)C(=O)N[C@@H](Cc1ccc(O)cc1)C(=O)O` [MAG 245-258], the IC50 in test [1] (setting [7]) came out at 250 nM; in test [2] (setting [8]), 400 nM.

As for `CC[C@H](C)[C@H](NC(=O)[C@H](CCCCN)NC(=O)[C@H](CC(C)C)NC(=O)[C@H](Cc1ccccc1)NC(=O)[C@H](CCCNC(=N)N)NC(=O)[C@H](CCC(=O)O)NC(=O)CNC(=O)[C@H](CO)NC(=O)[C@H](CCCNC(=N)N)NC(=O)[C@@H](NC(=O)[C@H](CCC(N)=O)NC(=O)[C@H](CCCNC(=N)N)NC(=O)[C@@H](NC(=O)[C@@H](NC(=O)[C@H](CCC(N)=O)NC(=O)[C@@H](NC(=O)CN)C(C)C)[C@@H](C)CC)C(C)C)[C@@H](C)CC)C(=O)N[C@@H](Cc1c[nH]c2ccccc12)C(=O)N[C@@H](CO)C(=O)N[C@@H](CCC(N)=O)C(=O)O` [NS-p2, reference compound], the IC50 in test [1] and in test [2] was 40 nM each time.

Turning to `CC(C)C[C@H](NC(=O)[C@H](Cc1c[nH]c2ccccc12)NC(=O)[C@H](Cc1ccccc1)NC(=O)[C@H](CO)NC(=O)[C@@H](NC(=O)[C@@H](NC(=O)[C@H](Cc1ccccc1)NC(=O)[C@H](CC(N)=O)NC(=O)[C@H](CC(N)=O)NC(=O)[C@@H](N)Cc1ccccc1)[C@@H](C)O)C(C)C)C(=O)N[C@@H](CCCNC(=N)N)C(=O)N[C@H](C(=O)N1CCC[C@H]1C(=O)N[C@@H](CCCCN)C(=O)N[C@H](C(=O)N[C@@H](CO)C(=O)N[C@@H](C)C(=O)O)C(C)C)C(C)C` [TT947-963] (H-FNNFTVSFWLRVPKVSA-OH), the values for the concentration for half-maximal inhibition (IC50) in test [1] and in test [2] were 4.61 nM and 7 nM, respectively.

Turning to “DVEVYRAVTPLGPPD [DQB 43-57, reference compound]”, the “binding to the HLA-DP*0401 molecule” value in test [1] is reported as “do not bind”. Further, the “binding to the HLA-DP*0402 molecule” value in test [2] is recorded as “do not bind”.

Turning to `CSCC[C@H](NC(=O)[C@@H]1CCCN1C(=O)[C@@H](NC(=O)[C@H](C)NC(=O)[C@H](Cc1ccccc1)NC(=O)[C@@H]1CCCN1C(=O)[C@H](CCSC)NC(=O)[C@H](C)NC(=O)[C@H](CC(C)C)NC(=O)[C@H](Cc1ccc(O)cc1)NC(=O)[C@H](Cc1ccccc1)NC(=O)[C@H](CCC(=O)O)NC(=O)[C@H](CC(C)C)NC(=O)[C@@H](N)CC(C)C)[C@@H](C)O)C(=O)N[C@@H](CCC(=O)O)C(=O)N[C@@H](C)C(=O)N[C@@H](CCC(=O)O)C(=O)N[C@@H](CC(C)C)C(=O)N[C@@H](C)C(=O)N[C@@H](CCCNC(=N)N)C(=O)N[C@@H](CCCNC(=N)N)C(=O)N[C@@H](CO)C(=O)N[C@@H](CC(C)C)C(=O)N[C@@H](C)C(=O)N[C@@H](CCC(N)=O)C(=O)O` [NY-ESO1 87-111], the IC50 in test [1] (setting [7]) is 186 nM; in test [1] (setting [3]), 183 nM; in test [2] (setting [8]), 87 nM; in test [2] (setting [5]) it was 83 nM.

Take `CC[C@H](C)[C@H](NC(=O)[C@@H](NC(=O)[C@H](CC(=O)O)NC(=O)[C@H](C)NC(=O)[C@H](CO)NC(=O)[C@@H](N)CC(N)=O)[C@@H](C)O)C(=O)N[C@@H](CO)C(=O)N[C@@H](CO)C(=O)N[C@@H](Cc1ccc(O)cc1)C(=O)N[C@@H](Cc1ccccc1)C(=O)N[C@H](C(=O)NCC(=O)N[C@@H](CCCCN)C(=O)N[C@@H](CCSC)C(=O)N[C@@H](Cc1ccc(O)cc1)C(=O)N[C@@H](Cc1ccccc1)C(=O)N[C@@H](CC(N)=O)C(=O)N[C@@H](CC(C)C)C(=O)O)C(C)C` [73-90]: the IC50 in test [1] (setting [3]), in test [1] (setting [4]), in test [2] (setting [5]) and in test [2] (setting [6]) was over 10000 nM in each case.

Take `CC[C@H](C)[C@H](NC(=O)[C@@H](N)Cc1c[nH]c2ccccc12)C(=O)N[C@H](C(=O)N[C@@H](CCC(N)=O)C(=O)N[C@@H](CS)C(=O)N[C@@H](Cc1ccccc1)C(=O)N[C@@H](CC(C)C)C(=O)N1CCC[C@H]1C(=O)N[C@H](C(=O)O)C(C)C)[C@@H](C)O` (H-WITQCFLPV-OH; N-terminus and C-terminus assumed): the IC50 in test [1] (calculated activity (using the DP*0401-binding assay)) was 20 nM; in test [2] (calculated activity (using the DP*0402-binding assay)), 67 nM.

As to `CC[C@H](C)[C@H](NC(=O)[C@H](CC(C)C)NC(=O)[C@@H](N)CC(C)C)C(=O)NCC(=O)N[C@@H](CS)C(=O)N[C@@H](Cc1c[nH]c2ccccc12)C(=O)N[C@@H](Cc1ccc(O)cc1)C(=O)N[C@@H](CS)C(=O)N[C@@H](CCCNC(=N)N)C(=O)N[C@@H](CCCNC(=N)N)C(=O)N[C@@H](CCCNC(=N)N)C(=O)N[C@@H](CC(N)=O)C(=O)NCC(=O)N[C@@H](Cc1ccc(O)cc1)C(=O)N[C@@H](CCCNC(=N)N)C(=O)N[C@@H](C)C(=O)N[C@@H](CC(C)C)C(=O)N[C@@H](CCSC)C(=O)N[C@@H](CC(=O)O)C(=O)N[C@@H](CCCCN)C(=O)O` [MART1 41-60], the IC50 in test [1] (setting [7]), in test [1] (setting [3]), in test [2] (setting [8]) and in test [2] (setting [5]) was over 10000 nM in each case.
